Measured values from ChEMBL document CHEMBL2169825, “Development of selective, potent RabGGTase inhibitors” (J Med Chem, 2012).

How the values were obtained:
HCT-116 = assay: Cytotoxicity against human HCT116 cells after 24 hrs by Alamar Blue assay; format: functional, cell-based; conditions: HCT-116, 24 h
HeLa = assay: Cytotoxicity against human HeLa cells after 24 hrs by Alamar Blue assay; format: functional, cell-based
A2780 = assay: Cytotoxicity against human A2780 cells after 24 hrs by Alamar Blue assay; format: functional, cell-based; conditions: A2780, 24 h
A549 = assay: Cytotoxicity against human A549 cells after 24 hrs by Alamar Blue assay; format: functional, cell-based; conditions: A549, 24 h
DU-145 = assay: Cytotoxicity against human DU145 cells after 24 hrs by Alamar Blue assay; format: functional, cell-based; conditions: DU-145, 24 h
PBMC = assay: Cytotoxicity against human PBMC cells after 24 hrs by Alamar Blue assay; format: cell-based
[1] = Inhibition of rat RabGGTase using [3H]GGPP as substrate after 30 mins by scintillation counter
[2] = Inhibition of RabGGTase in human HeLa cells after 6 hrs by reprenylation assay; format: cell-based
[3] = Inhibition of RabGGTase using NBD-FPP as substrate after 5 mins by fluorometric assay
[4] = Inhibition of GGTase 1 using NBD-FPP as substrate after 10 mins by solution based fluorometric assay
[5] = Inhibition of FTase using NBD-GPP as substrate after 10 mins by solution based fluorometric assay
[6] = Inhibition of RabGGTase using [3H]GGPP as substrate after 1 hr by scintillation proximity assay

| SMILES | IC50 [1] | IC50 [2] | IC50 [3] | IC50 [4] | IC50 [5] | IC50 [6] | IC50 (HCT-116) | IC50 (HeLa) | IC50 (A2780) | IC50 (A549) | IC50 (DU-145) | IC50 (PBMC) |
| --- | --- | --- | --- | --- | --- | --- | --- | --- | --- | --- | --- | --- |
| COc1ccc(S(=O)(=O)N2Cc3cc(C#N)ccc3N(Cc3cncn3C)C[C@H]2Cc2ccccc2)cc1 | 21 nM | 74 nM | 724 nM | > 99500 nM | 6 nM | 6.4 nM | 63 nM | 101 nM | 43 nM | 99 nM | 70 nM | > 10000 nM |
| COc1ccc(S(=O)(=O)N2Cc3cc(-c4ccnc(OC)c4)ccc3N(Cc3cncn3C)C[C@H]2Cc2ccc(-c3cccnc3)cc2)cc1 | – | 300 nM | – | > 99500 nM | 79 nM | 121 nM | – | – | – | – | – | – |
| COc1ccc(S(=O)(=O)N2Cc3cc(-c4ccnc(OC)c4)ccc3N(Cc3cncn3C)C[C@H]2Cc2ccc(Nc3ccccc3)cc2)cc1 | – | – | – | > 99500 nM | 2430 nM | 5720 nM | – | – | – | – | – | – |
| COc1ccc(S(=O)(=O)N2Cc3cc(Nc4ccccc4)ccc3N(Cc3cncn3C)C[C@H]2Cc2ccc(O)cc2)cc1 | – | – | – | > 99500 nM | 454 nM | 246 nM | – | – | – | – | – | – |
| COc1ccc(S(=O)(=O)N2Cc3cc(-c4ccc(C=O)o4)ccc3N(Cc3cncn3C)C[C@H]2Cc2ccc(-c3ccc(Cl)cc3)cc2)cc1 | – | – | – | > 99500 nM | > 9700 nM | 2240 nM | – | – | – | – | – | – |
| COc1ccc(S(=O)(=O)N2Cc3cc(-c4ccc(C#N)o4)ccc3N(Cc3cncn3C)C[C@H]2Cc2ccc(OC(=O)NCc3ccccc3)cc2)cc1 | – | 49 nM | 41.6 nM | > 99500 nM | > 9700 nM | 260 nM | 35 nM | 101 nM | 115 nM | – | – | > 10000 nM |
| COc1ccc(S(=O)(=O)N2Cc3cc(-c4ccc(C#N)o4)ccc3N(Cc3cncn3C)C[C@H]2Cc2ccc(OCc3ccccc3)cc2)cc1 | – | 213 nM | – | > 99500 nM | > 9700 nM | 577 nM | – | – | – | – | – | – |
| COc1ccc(S(=O)(=O)N2Cc3cc(-c4ccc(C#N)o4)ccc3N(Cc3cncn3C)C[C@H]2Cc2ccc(OS(=O)(=O)C(F)(F)F)cc2)cc1 | – | 54 nM | – | – | – | – | 71 nM | 130 nM | 222 nM | – | – | > 10000 nM |
| COc1ccc(S(=O)(=O)N2Cc3cc(-c4ccc(C#N)o4)ccc3N(Cc3cncn3C)C[C@H]2Cc2ccc(Nc3ccccc3)cc2)cc1 | – | – | – | > 99500 nM | 1210 nM | 1060 nM | – | – | – | – | – | – |
| COc1ccc(S(=O)(=O)N2Cc3cc(C#N)ccc3N(Cc3cncn3C)C[C@H]2Cc2ccc(OC(=O)NCc3ccccc3)cc2)cc1 | – | 81 nM | 72.2 nM | > 99500 nM | – | – | 231 nM | 151 nM | 130 nM | 338 nM | 142 nM | > 10000 nM |
| COc1ccc(S(=O)(=O)N2Cc3cc(C#N)ccc3N(Cc3cncn3C)C[C@H]2Cc2ccc(-c3cccnc3)cc2)cc1 | – | 466 nM | 353 nM | 3630 nM | 4.3 nM | 11 nM | 308 nM | 409 nM | 399 nM | 442 nM | 413 nM | > 10000 nM |
| COc1ccc(S(=O)(=O)N2Cc3cc(-c4ccc(C=O)o4)ccc3N(Cc3cncn3C)C[C@H]2Cc2ccc(O)cc2)cc1 | – | 120 nM | 206 nM | > 99500 nM | 7 nM | – | – | – | – | – | – | – |
| COc1ccc(S(=O)(=O)N2Cc3cc(-c4ccc(C#N)o4)ccc3N(Cc3cncn3C)C[C@H]2Cc2ccc(O)cc2)cc1 | – | 11 nM | 62.5 nM | > 99500 nM | 26.9 nM | < 14 nM | 2 nM | 21 nM | 18 nM | – | – | > 10000 nM |
| COc1ccc(S(=O)(=O)N2Cc3cc(-c4ccc(Cl)cc4)ccc3N(Cc3cncn3C)C[C@H]2Cc2ccc(O)cc2)cc1 | – | – | – | > 99500 nM | 194 nM | 706 nM | – | – | – | – | – | – |
| COc1ccc(S(=O)(=O)N2Cc3cc(-c4ccnc(OC)c4)ccc3N(Cc3cncn3C)C[C@H]2Cc2ccc(O)cc2)cc1 | – | – | – | > 99500 nM | 18.6 nM | 5.5 nM | – | – | – | – | – | – |
| COc1ccc(S(=O)(=O)N2Cc3cc(-c4ccncc4)ccc3N(Cc3cncn3C)C[C@H]2Cc2ccc(O)cc2)cc1 | – | – | – | > 99500 nM | 13.6 nM | < 4 nM | – | – | – | – | – | – |
| COc1ccc(S(=O)(=O)N2Cc3cc(-c4cc(F)cc(F)c4)ccc3N(Cc3cncn3C)C[C@H]2Cc2ccc(O)cc2)cc1 | – | – | – | > 99500 nM | 172 nM | 185 nM | – | – | – | – | – | – |
| COc1ccc(S(=O)(=O)N2Cc3cc(C#N)ccc3N(Cc3cncn3C)C[C@H]2Cc2ccc(OCC=C(C)C)cc2)cc1 | – | 43 nM | 39 nM | > 99500 nM | 15 nM | 63 nM | 112 nM | 59 nM | 116 nM | 74 nM | 90 nM | 8030 nM |
| COc1ccc(S(=O)(=O)N2Cc3cc(C#N)ccc3N(Cc3cncn3C)C[C@H]2Cc2ccc(OCc3ccccc3)cc2)cc1 | – | – | 441 nM | > 99500 nM | 99.3 nM | 181 nM | 1050 nM | 372 nM | 265 nM | 746 nM | 756 nM | > 10000 nM |

The next lines start with results.

| IC50 [1] | IC50 [2] | IC50 [3] | IC50 [4] | IC50 [5] | IC50 [6] | SMILES | IC50 (HCT-116) | IC50 (HeLa) | IC50 (A2780) | IC50 (A549) | IC50 (DU-145) | IC50 (PBMC) |
| --- | --- | --- | --- | --- | --- | --- | --- | --- | --- | --- | --- | --- |
| – | 311 nM | 616 nM | > 99500 nM | > 9700 nM | 1550 nM | COc1ccc(S(=O)(=O)N2Cc3cc(-c4ccc(C=O)o4)ccc3N(Cc3cncn3C)C[C@H]2Cc2ccc(OC(=O)NCc3ccccc3)cc2)cc1 | 443 nM | 797 nM | 589 nM | – | – | > 10000 nM |
| – | 3890 nM | – | > 99500 nM | 20.7 nM | 70.5 nM | CCCCCCNC(=O)c1ccc2c(c1)CN(S(=O)(=O)c1ccc(OC)cc1)[C@H](Cc1ccc(O)cc1)CN2Cc1cncn1C | – | – | – | – | – | – |
| – | – | – | > 99500 nM | 112 nM | 27 nM | COc1ccc(S(=O)(=O)N2Cc3cc(N4CCN(C(C)=O)CC4)ccc3N(Cc3cncn3C)C[C@H]2Cc2ccc(O)cc2)cc1 | – | – | – | – | – | – |
| – | – | – | > 99500 nM | > 9700 nM | 4290 nM | COc1ccc(S(=O)(=O)N2Cc3cc(-c4ccc(C=O)o4)ccc3N(Cc3cncn3C)C[C@H]2Cc2ccc(OS(=O)(=O)C(F)(F)F)cc2)cc1 | – | – | – | – | – | – |
| – | – | – | > 99500 nM | 110 nM | 37 nM | COc1ccc(S(=O)(=O)N2Cc3cc(-c4ccc(C#N)o4)ccc3N(Cc3cncn3C)C[C@H]2Cc2ccc(-c3cccnc3)cc2)cc1 | – | – | – | – | – | – |
| – | 338 nM | – | > 99500 nM | 321 nM | 55 nM | COc1ccc(S(=O)(=O)N2Cc3cc(-c4ccnc(OC)c4)ccc3N(Cc3cncn3C)C[C@H]2Cc2ccc(OC(=O)NCc3ccccc3)cc2)cc1 | – | – | – | – | – | – |
| – | – | – | > 99500 nM | 2560 nM | 5240 nM | COc1ccc(S(=O)(=O)N2Cc3cc(-c4ccnc(OC)c4)ccc3N(Cc3cncn3C)C[C@H]2Cc2ccc(OCc3ccccc3)cc2)cc1 | – | – | – | – | – | – |
| – | 343 nM | – | 2020 nM | – | 123 nM | CCN(CC)C(=O)Oc1ccc(C[C@@H]2CN(Cc3cncn3C)c3ccc(C#N)cc3CN2S(=O)(=O)c2ccc(OC)cc2)cc1 | 75 nM | 745 nM | 43 nM | 412 nM | – | > 10000 nM |
| – | > 10000 nM | 18600 nM | > 99500 nM | – | 1500 nM | COc1ccc(S(=O)(=O)N2Cc3cc(C#N)ccc3N(Cc3cncn3C)C[C@H]2Cc2ccc(OS(=O)(=O)C(F)(F)F)cc2)cc1 | – | 1960 nM | 92 nM | 2220 nM | 3100 nM | > 10000 nM |
| – | – | – | > 99500 nM | 34.4 nM | 22.5 nM | COc1ccc(S(=O)(=O)N2Cc3cc(-c4cccc(C#N)c4)ccc3N(Cc3cncn3C)C[C@H]2Cc2ccc(O)cc2)cc1 | – | – | – | – | – | – |
| – | – | – | > 99500 nM | 81.7 nM | 55 nM | COc1ccc(S(=O)(=O)N2Cc3cc(-c4ccco4)ccc3N(Cc3cncn3C)C[C@H]2Cc2ccc(O)cc2)cc1 | – | – | – | – | – | – |
| – | – | – | > 99500 nM | 7 nM | 19 nM | COc1ccc(S(=O)(=O)N2Cc3cc(C(=O)NCc4ccccc4)ccc3N(Cc3cncn3C)C[C@H]2Cc2ccc(O)cc2)cc1 | – | – | – | – | – | – |
| – | 115 nM | 1010 nM | > 99500 nM | 5.2 nM | < 4 nM | COc1ccc(S(=O)(=O)N2Cc3cc(C#N)ccc3N(Cc3cncn3C)C[C@H]2Cc2ccc(O)cc2)cc1 | 172 nM | 130 nM | 100 nM | 315 nM | 162 nM | – |
| – | 307 nM | 162 nM | > 99500 nM | 10 nM | 156 nM | CCCCOc1ccc(C[C@@H]2CN(Cc3cncn3C)c3ccc(C#N)cc3CN2S(=O)(=O)c2ccc(OC)cc2)cc1 | 264 nM | 154 nM | 165 nM | 216 nM | 241 nM | 8690 nM |
| – | 278 nM | 2070 nM | > 99500 nM | 1010 nM | 23.5 nM | COc1ccc(S(=O)(=O)N2Cc3cc(C#N)ccc3N(Cc3cncn3C)C[C@H]2Cc2ccc(OC/C=C(\C)CCC=C(C)C)cc2)cc1 | 1430 nM | – | 1380 nM | 653 nM | – | > 10000 nM |
| – | 77.3 nM | 243 nM | > 99500 nM | – | 15.5 nM | CCCCCCNC(=O)Oc1ccc(C[C@@H]2CN(Cc3cncn3C)c3ccc(C#N)cc3CN2S(=O)(=O)c2ccc(OC)cc2)cc1 | 355 nM | – | 233 nM | 289 nM | 228 nM | – |
